System: diarrhea-predominant IBS subjects
Assay: Study S241.3.006: weekly diary questions on adequate relief
Assay type: in vivo, human
Conditions: for Number of months a subject was a responder: One month (Abdominal pain/discomfort) / Number of months a subject was a responder: One month (Abnormal bowel habits) / Number of months a subject was a responder: One month (IBS symptoms) / Number of months a subject was a responder: Three months (Abdominal pain/discomfort) / Number of months a subject was a responder: Three months (Abnormal bowel habits) / Number of months a subject was a responder: Three months (IBS symptoms) / Number of months a subject was a responder: Two months (Abdominal pain/discomfort) / Number of months a subject was a responder: Two months (Abnormal bowel habits) / Number of months a subject was a responder: Two months (IBS symptoms) / Number of months a subject was a responder: Zero months (Abdominal pain/discomfort) / Number of months a subject was a responder: Zero months (Abnormal bowel habits) / Number of months a subject was a responder: Zero months (IBS symptoms) / Overall responder rate, adequate relief of IBS symptoms / Overall responder rate, adequate relief of abdominal pain/discomfort / Overall responder rate, adequate relief of abnormal bowel habits: three-month treatment period; for Number of months a subject was a responder: One month (Abdominal pain/discomfort) / Number of months a subject was a responder: One month (Abnormal bowel habits) / Number of months a subject was a responder: One month (IBS symptoms) / Number of months a subject was a responder: Three months (Abdominal pain/discomfort) / Number of months a subject was a responder: Three months (Abnormal bowel habits) / Number of months a subject was a responder: Three months (IBS symptoms) / Number of months a subject was a responder: Two months (Abdominal pain/discomfort) / Number of months a subject was a responder: Two months (Abnormal bowel habits) / Number of months a subject was a responder: Two months (IBS symptoms) / Number of months a subject was a responder: Zero months (Abdominal pain/discomfort) / Number of months a subject was a responder: Zero months (Abnormal bowel habits) / Number of months a subject was a responder: Zero months (IBS symptoms): monthly LOCF
Experimental: The study was conducted in 129 study centers in the United States. At total of 2080 subjects consented to participate, and 711 subjects were randomized. A total of 692 subjects were analyzed for efficacy and 701 subjects were analyzed for safety. Diagnosis and main criteria for inclusion were IBS subjects satisfying the Rome I criteria (1992); the diarrhea predominant sub-population of the Rome II criteria; and a minimum abdominal pain/discomfort, stool frequency and consistency determined during the run-in period. Subjects were treated with cilansetron 2 mg tablets given orally TID or matching placebo tablets given orally TID for 12 weeks double-blind treatment.
The primary efficacy parameter was the number of months that a subject was a responder for IBS symptoms (abdominal pain, abdominal discomfort, abnormal bowel habits) over the 12-week treatment period. A responder for a month (monthly responder) was defined as a subject who answered the weekly question with “yes” at least twice for that month.
Studies S24 1.3.OO6, S24 1.3.0 1 1, and S24 1.3.009 used the following efficacy measurements: • The subjects answered the following three questions with “yes” or “no” using a phone diary at the end of each week: • a) During the last week, did you experience adequate relief of your IBS symptoms, such as abdominal pain, abdominal discomfort, abnormal bowel habits? • b) During the last week, did you experience adequate relief of your abdominal pain and/or discomfort? • c) During the last week, did you experience adequate relief of your abnormal bowel habits? • The subjects rated the following symptoms using the phone diary at the end of each day: • abdominal pain/discomfort (five-point scale); • stool consistency (seven-point Bristol Stool Scale); • stool frequency (number of bowel movements each day); • urgency (five-point scale); • straining (yes or no); • feeling of incomplete defecation (yes or no); • bloating or feeling of abdominal distension (five-point scale). • In Studies S241 A006 and S241.3.009, subjects completed the IBS-QOL Survey at Baseline (Day 1) and at the end of treatment. In Study S24 1.3.0 1 1, subjects completed the IBS-QOL Survey at Baseline (Day 1), at the end of the three-month treatment period, and at the end of rerandomized treatment.
In all three pivotal efficacy studies, the primary and main secondary efficacy parameters were based on the weekly diary questions on adequate relief and included the following: • 1. Number of months (one month equals four weeks) that a subject was a responder for the weekly diary questions on adequate relief. A responder for a month (monthly responder) was defined as a subject who answered the weekly question with “yes” at least twice for that month. For Studies S241.3.006 and S241.3.011, the primary efficacy parameter was the number of months that a subject was a responder for IBS symptoms during the 12-week treatment period. The two main secondary efficacy parameters were the number of months that a subject was a responder for abdominal pain/discomfort and abnormal bowel habits during the 12-week treatment period. For Study S241.3.009, the number of months that a subject was a responder for the weekly diary questions on adequate relief during Months 1 to 3 (the first 12 weeks) and Months 1 to 6 (24-week) was an additional key secondary efficacy parameter. • 2. Overall responder rate for the weekly diary questions on adequate relief. A responder was defined as a subject who answered the weekly question with “yes” for at least half of the answers available with a minimum of four weeks treatment duration. If a subject had less than four weeks treatment duration, the subject was considered a non-responder. The overall responder rate was the percentage of responders within a treatment group. For Study S241.3.009, the primary efficacy parameter was the overall responder rate for IBS symptoms during the 26-week treatment period. […]

[1] = Duration of IBS: ≦24 months, ITT, 2 mg TID
[2] = Female subjects, observed case, ITT, 2 mg TID
[3] = Male subjects, observed case, ITT, 2 mg TID

Cc1nccn1C[C@H]1CCc2c(c3cccc4c3n2CCC4)C1=O [Cilansetron, (R)-(−)-4,5,6,8,9,10-hexahydro-10-[(2-methyl-1H-imidazol-1-yl)methyl]-11H-pyrido-[3,2,1-jk]-carbazol-11-one]
Number of subjects who were responders during the three-month treatment period: Adequate relief of abnormal bowel habits (Duration of IBS: ≦24 months, 2 mg TID, observed case, ITT): 27 (53) n (%)
Number of months a subject was a responder: One month (Abdominal pain/discomfort) [1]: 7 (14) n (%)
Number of months a subject was a responder: One month (Abnormal bowel habits) [1]: 4 (8) n (%)
Number of months a subject was a responder: One month (IBS symptoms) [1]: 5 (10) n (%)
Number of months a subject was a responder: Three months (Abdominal pain/discomfort) [1]: 25 (49) n (%)
Number of months a subject was a responder: Three months (Abnormal bowel habits) [1]: 22 (43) n (%)
Number of months a subject was a responder: Three months (IBS symptoms) [1]: 19 (37) n (%)
Number of months a subject was a responder: Two months (Abdominal pain/discomfort) [1]: 4 (8) n (%)
Number of months a subject was a responder: Two months (Abnormal bowel habits) [1]: 7 (14) n (%)
Number of months a subject was a responder: Two months (IBS symptoms) [1]: 8 (16) n (%)
Number of months a subject was a responder: Zero months (Abdominal pain/discomfort) [1]: 15 (29) n (%)
Number of months a subject was a responder: Zero months (Abnormal bowel habits) [1]: 18 (35) n (%)
Number of months a subject was a responder: Zero months (IBS symptoms) [1]: 19 (37) n (%)
Number of months a subject was a responder: One month (Abdominal pain/discomfort) (Female subjects, ITT, 2 mg TID): 32 (13) n (%)
Number of months a subject was a responder: One month (Abnormal bowel habits) (Female subjects, ITT, 2 mg TID): 27 (11) n (%)
Number of months a subject was a responder: One month (IBS symptoms) (Female subjects, ITT, 2 mg TID): 36 (15) n (%)
Number of months a subject was a responder: Three months (Abdominal pain/discomfort) (Female subjects, ITT, 2 mg TID): 103 (42) n (%)
Number of months a subject was a responder: Three months (Abnormal bowel habits) (Female subjects, ITT, 2 mg TID): 104 (43) n (%)
Number of months a subject was a responder: Three months (IBS symptoms) (Female subjects, ITT, 2 mg TID): 94 (39) n (%)
Number of months a subject was a responder: Two months (Abdominal pain/discomfort) (Female subjects, ITT, 2 mg TID): 38 (16) n (%)
Number of months a subject was a responder: Two months (Abnormal bowel habits) (Female subjects, ITT, 2 mg TID): 37 (15) n (%)
Number of months a subject was a responder: Two months (IBS symptoms) (Female subjects, ITT, 2 mg TID): 38 (16) n (%)
Number of months a subject was a responder: Zero months (Abdominal pain/discomfort) (Female subjects, ITT, 2 mg TID): 70 (29) n (%)
Number of months a subject was a responder: Zero months (Abnormal bowel habits) (Female subjects, ITT, 2 mg TID): 75 (31) n (%)
Number of months a subject was a responder: Zero months (IBS symptoms) (Female subjects, ITT, 2 mg TID): 75 (31) n (%)
Overall responder rate, adequate relief of IBS symptoms [2]: 127 (52) n (%)
Overall responder rate, adequate relief of abdominal pain/discomfort [2]: 134 (55) n (%)
Overall responder rate, adequate relief of abnormal bowel habits [2]: 135 (56) n (%)
Number of months a subject was a responder: One month (Abdominal pain/discomfort) (Male subjects, ITT, 2 mg TID): 10 (10) n (%)
Number of months a subject was a responder: One month (Abnormal bowel habits) (Male subjects, ITT, 2 mg TID): 13 (13) n (%)
Number of months a subject was a responder: One month (IBS symptoms) (Male subjects, ITT, 2 mg TID): 9 (9) n (%)
Number of months a subject was a responder: Three months (Abdominal pain/discomfort) (Male subjects, ITT, 2 mg TID): 36 (36) n (%)
Number of months a subject was a responder: Three months (Abnormal bowel habits) (Male subjects, ITT, 2 mg TID): 25 (25) n (%)
Number of months a subject was a responder: Three months (IBS symptoms) (Male subjects, ITT, 2 mg TID): 25 (25) n (%)
Number of months a subject was a responder: Two months (Abdominal pain/discomfort) (Male subjects, ITT, 2 mg TID): 9 (9) n (%)
Number of months a subject was a responder: Two months (Abnormal bowel habits) (Male subjects, ITT, 2 mg TID): 15 (15) n (%)
Number of months a subject was a responder: Two months (IBS symptoms) (Male subjects, ITT, 2 mg TID): 15 (15) n (%)
Number of months a subject was a responder: Zero months (Abdominal pain/discomfort) (Male subjects, ITT, 2 mg TID): 46 (46) n (%)
Number of months a subject was a responder: Zero months (Abnormal bowel habits) (Male subjects, ITT, 2 mg TID): 48 (48) n (%)
Number of months a subject was a responder: Zero months (IBS symptoms) (Male subjects, ITT, 2 mg TID): 52 (51) n (%)
Overall responder rate, adequate relief of IBS symptoms [3]: 41 (41) n (%)
Overall responder rate, adequate relief of abdominal pain/discomfort [3]: 45 (45) n (%)
Overall responder rate, adequate relief of abnormal bowel habits [3]: 39 (39) n (%)
Overall responder rate, IBS symptoms (females): 52%
Overall responder rate, abdominal pain/discomfort (females): 55%
Overall responder rate, abnormal bowel habits (females): 56%
Overall responder rate, IBS symptoms (males): 41%
Overall responder rate, abdominal pain/discomfort (males): 45%
Overall responder rate, abnormal bowel habits (males): 39%
Overall responder rate, abdominal pain/discomfort (non-Caucasians): 48%

Reference: patent US20090176817A1, “Method of Treatment of Diarrhea-Predominant Irritable Bowel Syndrome in a Subject” (priority 2005, published 2009)
